Measured values as given in US20250228858A1, “ANTI-CANCER COMBINATION THERAPY” (Boehringer Ingelheim International GmbH, priority 2023, published 2025).

Columns and labels:
[1] = tested on: HER2-overexpressing human gastric cancer cell line NCI-N87; assay: NCI-N87 subcutaneous xenograft, zongertinib with T-DM1; assay type: in vivo, NMRI-Foxn1^nu mice; conditions: for Regressions >30% / TGI: day 21; for Regressions >30%: tumors regressed/total; for Time to reach 300 mm^3: median, after stop of treatment at day 21
Protocol: The study is performed in human gastric cancer cell line NCI-N87 grown as subcutaneous xenografts in NMRI-Foxn1^nu mice. Day 1 was the first day, day 21 the last day of treatment and day 22 the final day of analysis. […]
NCI-N87 is a HER2-overexpressing human gastric cancer cell line that can be obtained from the American Type Culture Collection (ATCC #CRL-5822). Cells are cultured in T175 tissue culture flasks at 37° C. and 5% CO2. The medium used is RPMI 1640 (ATCC #30-2001) supplemented with 10% fetal calf serum (FCS) (Thermo Scientific #SH 30084.03). Cultures are split twice weekly with a ratio of 1:2.
Mice are 6- to 10-week-old female NMRI-Foxn1^nu purchased from Taconic, Denmark. After arrival at the animal facility, mice are allowed to adjust to conditions at least for 5 days before they are used for the experiment. They are housed in Macrolon® type III cages in groups of 8 to 10 under pathogen-free, controlled and standardized conditions at 21.5±1.5° C. temperature, 55±10% humidity and 12-h light-dark cycle. Standardized diet (PROVIMI KLIBA) and autoclaved tap water are provided ad libitum. Subcutaneous microchips implanted under isoflurane anaesthesia are used to identify each mouse. Cage cards showing the study number, the animal identification number, the compound, the dose level, the administration route as well as the schedule remain with the animals throughout the study.
To establish subcutaneous tumors, NCI-N87 cells are harvested by centrifugation, washed and resuspended in PBS+5% FCS at 2.5×10^7 cells/ml. 100 μl cell suspension containing 2.5×10^6 cells is injected subcutaneously into the right flank of the mice (1 site per mouse).
The suspension is used for a maximum of 7 days.
T-DM1 (Kadcyla) can be purchased from Roche.
Mice in the control group are treated with vehicle, i.e.: • (i) 0.5% Natrosol, administered once daily for the duration of the treatment intragastrally by gavage needle with a volume of 10 ml/kg body weight; and • (ii) saline (0.9%), administered once every three weeks intravenously into the tail vein with a volume of 5 ml/kg.
Tumor volumes are measured three times a week with a caliper. The volume of each tumor [in mm^3] is calculated according to the formula: […]
To monitor side effects of treatment, mice are inspected daily for abnormalities and body weight is determined three times a week. […] In addition, animals with tumor sizes exceeding 1500 mm^3 in diameter, with ulcerating tumors or 18% body weight loss are euthanized for ethical reasons.
For a quick overview of possible treatment effects, the median of the tumor volume of each treatment group T is referred to the median of the control C as tumor growth inhibition (TGI) defined as: […]
To do so, the time until the tumor reached a critical volume of 300 mm^3 can be included as an additional evaluation parameter. If an animal is sacrificed for tumor necrosis without reaching the critical tumor volume, the time point is set to the last measurement time point and included as a censored observation.
The median survival time is derived from the Kaplan Meier survival curves per group as the time point with a survival probability (probability of reaching the critical tumor volume) of 0.5. For the treatment groups the median survival time is referred to the corresponding time of the control group as an estimate for the prolongation of the time to critical tumor volume by the therapy.

parental NCI-N87 cells = assay: Proliferation assay (CellTiter Glo), parental NCI-N87 cells; assay type: cell-based, human; conditions: 5 days of incubation, in vitro
Protocol: Per well, 1000 cells are seeded in 40 μL medium in white, sterile 384-well culture plates (TC-treated; PerkinElmer #6007680) and incubated overnight in a humidified incubator at 37° C. and 5% CO2. 0.1% DMSO-control or serial compound dilution in triplicates are added. […] After 5 days of incubation with test compounds, the cells plates are measured upon addition of CellTiter Glo Luminescent Cell Viability Reagent (Promega, #G9243) to assess cell viability. The plates are placed on a shaker for five minutes and additionally incubated for 10 minutes at room temperature to induce cell lysis and to stabilize the luminescent signal. The luminescent signal of each well is measured in an EnSpire Multilabel Plate Reader 658 (PerkinElmer). The dose response curves are fit and visualized using Boehringer Ingelheim's proprietary software MegaLab and PRISM (GraphPad Inc.).

[2] = tested on: HER2-overexpressing human breast cancer cell line HCC1954; assay type: in vivo; conditions: zongertinib 20 mg/kg qdx21 p.o., T-DXd 1 mg/kg q21dx1 i.v., pertuzumab 20 mg/kg q7dx3 i.p., alone or combined
Protocol: Day 1 was the first day, day 21 the last day of treatment and final day of analysis.
Cells are cultured in T75, T175 and 5-Layer tissue culture flasks at 37° C. and 5% CO2.
The statistical evaluation of the tumor volume and the body weight is conducted on day 21 (last day of the study). Apart from this, statistical analysis was performed as described in Example 1 (see paragraph 1.1.7), with no evaluation of tumor growth after stop of treatment.

[3] = tested on: HER2-overexpressing human ovarian cell line SK-OV-3; assay: SK-OV-3 subcutaneous xenograft, zongertinib with T-DXd; assay type: in vivo, NMRI-Foxn1^nu mice
Protocol: The study is performed in human ovarian cancer cell line SK-OV-3 grown as subcutaneous xenografts in NMRI-Foxn1^nu mice. Day 1 was the first day, day 20 the last day of treatment and final day of analysis.
SK-OV-3 is a HER2-overexpressing human ovarian cancer cell line that can be obtained from ATCC (lot HTB-77). Cells are cultured in T75, T175 and 5-Layer tissue culture flasks at 37° C. and 5% CO2. The medium used is IMDM (PAN-Biotech, #P04-200150) supplemented with 10% FCS (Cytiva HyClone Characterized FBS, SH30084.03n). Cultures are split twice weekly with a ratio of 1:2-1:3.
To establish subcutaneous tumors, SK-OV-3 cells are harvested by centrifugation, washed and resuspended in PBS+5% FCS at 5×10^7 cells/ml. 100 μl cell suspension containing 5×10^6 cells is injected subcutaneously into the right flank of mice (1 site per mouse).
Apart from this, statistical analysis was performed as described in Example 1 (see paragraph 1.1.7), with no evaluation of tumor growth after stop of treatment.

[4] = zongertinib 5 mg/kg qdx21 p.o., alone or combined with T-DM1 10 mg/kg q21dx1 i.v.
[5] = zongertinib 20 mg/kg qdx21 p.o., T-DM1 10 mg/kg q21dx1 i.v., alone or combined
[6] = zongertinib 20 mg/kg/day, T-DM1 10 mg/kg, alone or combined

Row | Compound | Regressions >30% [1, 4] | Regressions >30% [1, 5] | TGI [1, 4] [%] | TGI [1, 5] [%] | Time to reach 300 mm^3 [1, 4] [days] | effect on tumor growth (median tumor volumes over time) ([1]; zongertinib 5 mg/kg/day, alone or combined with T-DM1 10 mg/kg) | effect on tumor growth (median tumor volumes over time) [1, 6] | sensitivity (dose response, cell viability) (parental NCI-N87 cells) | TGI ([2]; day 21) [%] | Regressions >30% ([2]; tumors regressed/total (partial response)) | TGI ([3]; day 15, zongertinib 10 mg/kg qdx20 p.o., T-DXd 7 mg/kg q21dx1 i.v., alone or combined) [%] | Regressions >30% ([3]; day 20, tumors regressed/total (partial response), zongertinib 10 mg/kg qdx20 p.o., T-DXd 7 mg/kg q21dx1 i.v., alone or combined) | stable diseases ([3]; day 20, zongertinib 10 mg/kg qdx20 monotherapy) | Time to reach 300 mm^3 [1, 5] [days]
1 | C=CC(=O)NC1CCN(c2ncc3ncnc(Nc4ccc(Oc5ccc6c(c5)ncn6C)c(C)c4)c3n2)CC1 [Zongertinib, N-{1-[8-({3-methyl-4-[(1-methyl-1H-1,3-benzodiazol-5-yl)oxy]phenyl}amino)-[1,3]diazino [5,4-d]pyrimidin-2-yl]piperidin-4-yl}prop-2-enamide] | 0/8 | 8/8 | 45 | 145 | 30.0 | did not shrink tumors | induced deep and persistent tumor shrinkage | sensitive | 68 | 0/8 | 91 | 0/8 | 2 out of 8 | 
2 | trastuzumab emtansine [T-DM1, reference compound] |  | 1/8 |  | 67 |  |  | suppressed the growth of NCI-N87 tumors but did not shrink them |  |  |  |  |  |  | 39.5
